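Tested at 5 concentrations; 48 h exposure; 96-well plates; endpoints linearly interpolated, else capped at highest concentration. The concentration for 50% growth inhibition is given as GI50.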 The source made the active and inactive calls. No stated cut-off is given here; in the data, active = GI50 up to about 1.1 µM and inactive = higher.
Experiments:
Experiment in all cases: growth of human tumour cells (NCI), 48 h
[1] = test system: 786-0
[2] = test system: A498
[3] = test system: A549
[4] = test system: ACHN
[5] = test system: BT-549
[6] = test system: CAKI-1
[7] = test system: CCRF-CEM
[8] = test system: COLO 205
[9] = test system: DU-145
[10] = test system: EKVX
[11] = test system: HCC 2998
[12] = test system: HCT-116
[13] = test system: HCT-15
[14] = test system: HL-60
[15] = test system: HOP-62
[16] = test system: HOP-92
[17] = test system: HT-29
[18] = test system: Hs-578T
[19] = test system: IGROV-1
[20] = test system: K562
[21] = test system: KM12
[22] = test system: LOX IMVI
[23] = test system: M14
[24] = test system: MCF7
[25] = test system: MDA-MB-231
[26] = test system: MDA-MB-435
[27] = test system: MDA-N
[28] = test system: MOLT-4
[29] = test system: Malme-3M
[30] = test system: NCI-H226
[31] = test system: NCI-H23
[32] = test system: NCI-H460
[33] = test system: NCI-H522
[34] = test system: NCI/ADR-RES
[35] = test system: OVCAR-3
[36] = test system: OVCAR-4
[37] = test system: OVCAR-5
[38] = test system: OVCAR-8
[39] = test system: PC-3
[40] = test system: RPMI-8226
[41] = test system: RXF 393
[42] = test system: SF-268
[43] = test system: SF-295
[44] = test system: SF-539
[45] = test system: SK-MEL-28
[46] = test system: SK-MEL-2
[47] = test system: SK-MEL-5
[48] = test system: SK-OV-3
[49] = test system: SN12C
[50] = test system: SNB-19
[51] = test system: SNB-75
[52] = test system: SR
[53] = test system: SW-620
[54] = test system: T47D
[55] = test system: TK-10
[56] = test system: U-251
[57] = test system: UACC-257
[58] = test system: UACC-62
[59] = test system: UO-31

With [N-]=[N+]=NCC1OC(n2cnc3c(N)ncnc32)C2OC12 (stereo not drawn) the GI50 [1] was > 100 µM (inactive), the GI50 [2] was > 100 µM (inactive) and the GI50 [3] was > 100 µM (inactive). For the same compound, the GI50 [4] was > 100 µM (inactive), the GI50 [5] was > 100 µM (inactive) and the GI50 [6] was > 100 µM (inactive). For the same compound, the GI50 [7] was > 100 µM (inactive), the GI50 [8] was > 100 µM (inactive) and the GI50 [9] was > 100 µM (inactive). For the same compound, the GI50 [10] was > 100 µM (inactive), the GI50 [11] was > 100 µM (inactive) and the GI50 [12] was > 100 µM (inactive). The GI50 [13] was greater than 100 µM, the GI50 [14] was > 100 µM (inactive) and the GI50 [15] was > 100 µM (inactive). For the same compound, the GI50 [16] was > 100 µM (inactive), the GI50 [17] was > 100 µM (inactive) and the GI50 [18] was > 100 µM (inactive). The GI50 [19] was > 100 µM (inactive), the GI50 [20] was > 100 µM (inactive) and the GI50 [21] was > 100 µM (inactive). For the same compound, the GI50 [22] was > 100 µM (inactive), the GI50 [23] was > 100 µM (inactive) and the GI50 [24] was > 100 µM (inactive). For the same compound, the GI50 [25] was > 100 µM (inactive), the GI50 [26] was > 100 µM (inactive) and the GI50 [27] was > 100 µM (inactive). For the same compound, the GI50 [28] was > 100 µM (inactive), the GI50 [29] was > 100 µM (inactive) and the GI50 [30] was > 100 µM (inactive). The GI50 [31] was > 100 µM (inactive), the GI50 [32] was > 100 µM (inactive) and the GI50 [33] was > 100 µM (inactive). For the same compound, the GI50 [34] was > 100 µM (inactive), the GI50 [35] was > 100 µM (inactive) and the GI50 [36] was > 100 µM (inactive). The GI50 [37] was > 100 µM (inactive), the GI50 [38] was > 100 µM (inactive) and the GI50 [39] was > 100 µM (inactive). The GI50 [40] was > 100 µM (inactive), the GI50 [41] was > 100 µM (inactive) and the GI50 [42] was > 100 µM (inactive). For the same compound, the GI50 [43] was > 100 µM (inactive), the GI50 [44] was > 100 µM (inactive) and the GI50 [45] was > 100 µM (inactive). The GI50 [46] was > 100 µM (inactive), the GI50 [47] was > 100 µM (inactive) and the GI50 [48] was > 100 µM (inactive). For the same compound, the GI50 [49] was > 100 µM (inactive), the GI50 [50] was > 100 µM (inactive) and the GI50 [51] was > 100 µM (inactive). For the same compound, the GI50 [52] was > 100 µM (inactive), the GI50 [53] was > 100 µM (inactive) and the GI50 [54] was > 100 µM (inactive). For the same compound, the GI50 [55] was > 100 µM (inactive), the GI50 [56] was > 100 µM (inactive) and the GI50 [57] was > 100 µM (inactive). The GI50 [58] was > 100 µM (inactive) and the GI50 [59] was > 100 µM (inactive).

With c1ccc2c(c1)N=c1ccccc1=P21c2ccccc2Nc2ccccc21 the GI50 [1] was 1.03 µM (active), the GI50 [2] was 0.581 µM (active) and the GI50 [3] was 0.232 µM (active). The GI50 [4] was 2.4 µM (inactive), the GI50 [5] was 0.372 µM (active) and the GI50 [6] was 2.4 µM (inactive). For the same compound, the GI50 [7] was 0.174 µM (active), the GI50 [8] was 0.129 µM (active) and the GI50 [9] was 0.388 µM (active). The GI50 [10] was 5.04 µM (inactive), the GI50 [11] was 0.598 µM (active) and the GI50 [12] was 0.242 µM (active). The GI50 [13] was 17.2 µM, the GI50 [14] was 0.186 µM (active) and the GI50 [15] was 0.908 µM (active). The GI50 [16] was 0.332 µM (active), the GI50 [17] was 0.0724 µM (active) and the GI50 [18] was 0.382 µM (active). The GI50 [19] was 0.352 µM (active), the GI50 [20] was 0.202 µM (active) and the GI50 [21] was 0.132 µM (active). For the same compound, the GI50 [22] was 0.953 µM (active), the GI50 [23] was 0.518 µM (active) and the GI50 [24] was 0.457 µM (active). For the same compound, the GI50 [25] was 2.69 µM (inactive), the GI50 [26] was 0.39 µM (active) and the GI50 [27] was 0.379 µM (active). For the same compound, the GI50 [28] was 0.3 µM (active), the GI50 [29] was 0.242 µM (active) and the GI50 [30] was 0.577 µM (active). The GI50 [31] was 0.304 µM (active), the GI50 [32] was 0.186 µM (active) and the GI50 [33] was 0.216 µM (active). For the same compound, the GI50 [34] was 76 µM (inactive), the GI50 [35] was 0.301 µM (active) and the GI50 [36] was 0.601 µM (active). For the same compound, the GI50 [37] was 0.421 µM (active), the GI50 [38] was 0.521 µM (active) and the GI50 [39] was 0.242 µM (active). The GI50 [40] was 0.156 µM (active), the GI50 [41] was 0.438 µM (active) and the GI50 [42] was 0.614 µM (active). For the same compound, the GI50 [43] was 0.942 µM (active), the GI50 [44] was 0.619 µM (active) and the GI50 [45] was 0.986 µM (active). For the same compound, the GI50 [46] was 0.256 µM (active), the GI50 [47] was 0.188 µM (active) and the GI50 [48] was 0.265 µM (active). The GI50 [49] was 1.5 µM (inactive), the GI50 [50] was 0.325 µM (active) and the GI50 [51] was 0.246 µM (active). The GI50 [52] was 0.31 µM (active), the GI50 [53] was 0.405 µM (active) and the GI50 [54] was 0.192 µM (active). For the same compound, the GI50 [55] was 0.998 µM (active), the GI50 [56] was 0.366 µM (active) and the GI50 [57] was 0.39 µM (active). The GI50 [58] was 0.611 µM (active) and the GI50 [59] was 7.1 µM (inactive).

From ChEMBL document CHEMBL1201862, “PubChem BioAssay data set” (2004)
